Experimental data published in the NIST ThermoML archive (doi:10.1021/je300974g).

How the values were obtained:
[1] = xn = mol fraction of the nth substance listed; conditions: 101 kPa, Liquid, Vibrating tube method
[2] = 101.33 kPa, Liquid, Vibrating tube method

CCNC=O [N-ethylformamide] + CCCOC(C)=O
mass density [kg/m3], [1]
Conditions	x1 = 0.1294	x1 = 0.2456	x1 = 0.3565	x1 = 0.4694	x1 = 0.5596	x1 = 0.6587	x1 = 0.7478	x1 = 0.8363	x1 = 0.9182
293.15 K	892.25	899.54	906.52	913.89	919.91	926.72	933	939.47	945.56
298.15 K	887.29	894.73	901.8	909.26	915.35	922.25	928.63	935.19	941.36
303.15 K	882.35	889.93	897.09	904.67	910.86	917.78	924.29	930.93	937.11
308.15 K	877.39	885.05	892.4	900.06	906.31	913.38	919.92	926.57	932.85
313.15 K	872.28	880.14	887.6	895.34	901.71	908.84	915.46	922.22	928.54

CCCC(C)=O [pentan-2-one]
[2]
Conditions	mass density [kg/m3]
293.15 K	807.47
298.15 K	802.46
303.15 K	797.53
308.15 K	792.52
313.15 K	787.44

CCCOC(C)=O [propyl ethanoate]
[2]
Conditions	mass density [kg/m3]
293.15 K	887.97
298.15 K	882.21
303.15 K	876.54
308.15 K	870.81
313.15 K	864.95

C1CCOCC1 [tetrahydropyran]
[2]
Conditions	mass density [kg/m3]
293.15 K	884.08
298.15 K	878.95
303.15 K	873.79
308.15 K	868.67
313.15 K	863.43

CCNC=O [N-ethylformamide]
[2]
Conditions	mass density [kg/m3]
293.15 K	951.59
298.15 K	947.48
303.15 K	943.29
308.15 K	939.04
313.15 K	934.78
